# From publication PMC10057996, “A Comparative Study of the Inhibitory Action of Berberine Derivatives on the Recombinant Protein FtsZ of E. coli” (International Journal of Molecular Sciences, 2023)
# Counter-ions that a name gives are not always drawn.
# Biological target: T1, FtsZ (Escherichia coli, UniProt P0A9A6)
# T1 construct: made in house; host or cells: E. coli
# Test: FtsZ GTPase assay (BIOMOL Green, Pi release)
# Type: biochemical, E. coli
# Conditions: not given
# Experimental: The functional effect of the berberine analogues 1c,d,f,i, and 1-2g,h on FtsZ was investigated by enzymatic assays. A recombinant form of FtsZ was produced in E. coli, purified according to [21], and used for binding assays. The GTPase activity of the FtsZ protein was assayed in the presence of the berberine-related compounds at 40 μM concentration and was monitored in comparison with the untreated protein at different GTP concentrations. The kinetic parameters were calculated according to the Michaelis–Menten equation using GraphPad Prism 8 for all the berberine-related compounds. The software returned KM (μM) and Vmax (Pi released/min) kinetic parameters that indicated the mechanism of inhibition exerted by each compound.
# The determination of the inhibition constant Ki for these compounds was performed to further investigate the mode of inhibition and clarified the potency of the competitive inhibitors. The Ki values were calculated performing kinetic analyses at different concentrations of competitive inhibitors (20 μM, 40 μM, and 60 μM).
# The FtsZ GTPase assay was performed using 6 μM FtsZ in reaction buffer 25 mM PIPES/NaOH, pH 6.8. The mixture containing FtsZ was incubated for 30 min at 30 °C, and different concentrations of GTP (from 0 µM to 500 µM) were added for a reaction time of 10 min, either in the absence or in the presence of 40 µM 1c, 1d, 1f, 1i, 1g, 1h, 2g, and 2h. The reaction was performed for 10 min and stopped by the addition of 100 µL BIOMOL Green reagent. The amount of Pi released during the assembly of FtsZ was monitored using BIOMOL Green phosphate reagent (Biomol, Milan, Italy) after incubation at 25 °C for 25 min by measuring the absorbance at 620 nm. The negative control (without enzyme) was subtracted from all the readings. The experiment was performed in duplicate. The data were elaborated in order to report U/mg VS substrate concentration, and kinetic parameters were fitted by nonlinear regression with GraphPad Prism 8 (GraphPad Software, San Diego, CA, USA). The inhibition constant (Ki) for all competitive inhibitors was calculated performing different kinetic analyses in the presence of 20, 40, and 60 µM of compounds and using the following equation: Ki=I/α−1 where α=KMapp/KM
# T1 sequence (P0A9A6 whole entry): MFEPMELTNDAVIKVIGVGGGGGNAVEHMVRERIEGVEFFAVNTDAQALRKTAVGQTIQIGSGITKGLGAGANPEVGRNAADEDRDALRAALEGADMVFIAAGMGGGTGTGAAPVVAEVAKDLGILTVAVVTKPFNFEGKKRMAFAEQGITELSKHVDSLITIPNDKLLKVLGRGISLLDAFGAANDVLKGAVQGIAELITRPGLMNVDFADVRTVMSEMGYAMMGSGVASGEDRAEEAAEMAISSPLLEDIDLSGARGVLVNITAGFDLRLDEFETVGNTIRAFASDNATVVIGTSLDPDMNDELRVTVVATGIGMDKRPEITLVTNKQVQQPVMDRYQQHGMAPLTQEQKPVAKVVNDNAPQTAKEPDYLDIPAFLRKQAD
row,SMILES,Ki [µM]
1,COc1cccc(CN(C)CCc2ccc3c(c2)OCO3)c1OC [1c],25
2,CCN(CCc1ccc2c(c1)OCO2)Cc1cccc(OC)c1OC [1d],44
3,Clc1ccc(CNCCc2ccc3c(c2)OCO3)cc1 [1g],41
4,c1ccc2c(CNCCc3ccc4c(c3)OCO4)cccc2c1 [1h],119
5,"CN(CCc1ccc2c(c1)OCO2)Cc1cccc2ccccc12.Cl [2h, 2-(2H-1,3-Benzodioxol-5-yl)-N-methyl-N-[(naphthalen-1-yl)methyl]ethan-1-amine hydrochloride]",51

# Same assay, conditions: from KM and Vmax changes at 40 µM compound
row,SMILES,inhibition mechanism on FtsZ GTPase activity
1,COc1cccc(CN(C)CCc2ccc3c(c2)OCO3)c1OC [1c],classical competitive inhibition mechanism
2,CCN(CCc1ccc2c(c1)OCO2)Cc1cccc(OC)c1OC [1d],classical competitive inhibition mechanism
3,CCCCCCN(CCc1ccc2c(c1)OCO2)Cc1cccc(OC)c1OC [1f],non-competitive inhibition mechanism
4,Clc1ccc(CNCCc2ccc3c(c2)OCO3)cc1 [1g],classical competitive inhibition mechanism
5,c1ccc2c(CNCCc3ccc4c(c3)OCO4)cccc2c1 [1h],classical competitive inhibition mechanism
6,O=[N+]([O-])c1ccccc1CNCCc1ccc2c(c1)OCO2 [1i],non-competitive inhibition mechanism
7,"CN(CCc1ccc2c(c1)OCO2)Cc1ccc(Cl)cc1 [2g, 2-(1,3-Benzodioxol-5-yl)-N-[(4-chlorobenzyl]-N-methylethan-1-amine hydrochloride]",acompetitive inhibitory mechanism
8,"CN(CCc1ccc2c(c1)OCO2)Cc1cccc2ccccc12.Cl [2h, 2-(2H-1,3-Benzodioxol-5-yl)-N-methyl-N-[(naphthalen-1-yl)methyl]ethan-1-amine hydrochloride]",classical competitive inhibition mechanism

# Same assay, conditions: in presence of 40 µM compound; 6 µM FtsZ, pH 6.8; untreated 0.63 ± 0.01
row,SMILES,Vmax (Pi Released/min) [Pi released/min]
1,COc1cccc(CN(C)CCc2ccc3c(c2)OCO3)c1OC [1c],0.54 ± 0.03
2,CCN(CCc1ccc2c(c1)OCO2)Cc1cccc(OC)c1OC [1d],0.58 ± 0.01
3,CCCCCCN(CCc1ccc2c(c1)OCO2)Cc1cccc(OC)c1OC [1f],0.35 ± 0.01
4,Clc1ccc(CNCCc2ccc3c(c2)OCO3)cc1 [1g],0.60 ± 0.02
5,c1ccc2c(CNCCc3ccc4c(c3)OCO4)cccc2c1 [1h],0.59 ± 0.01
6,"CN(CCc1ccc2c(c1)OCO2)Cc1cccc2ccccc12.Cl [2h, 2-(2H-1,3-Benzodioxol-5-yl)-N-methyl-N-[(naphthalen-1-yl)methyl]ethan-1-amine hydrochloride]",0.58 ± 0.01

# Biological target: T1, FtsZ
# Test: FtsZ polymerization assay by sedimentation, SDS-PAGE densitometry
# Type: biochemical, E. coli
# Conditions: inhibitor concentration 60 µM, 150 µM GTP
# Experimental: Inhibition of the GTPase activity of FtsZ might prevent the polymerization of the protein, which is well known to occur in the presence of GTP. We then investigated the effect of berberine analogues on the polymerization of FtsZ. The recombinant protein was incubated with 150 µM GTP in the absence and in the presence of increasing concentrations of berberine-related compounds. The FtsZ filaments were purified by centrifugation, analysed by SDS-PAGE, and the amount of polymerized protein was determined by densitometric analysis of the corresponding Coomassie-stained gel bands.
# Assays for FtsZ polymerization by sedimentation were performed by incubating 6 μM FtsZ with 150 µM GTP in 25 mM PIPES/NaOH, pH 6.8 for 60 min at 25 °C. The assays were carried out in the presence and in the absence of 20 μM, 40 μM, and 60 μM of berberine analogues. The reaction mixtures were centrifuged for 60 min at 14,000 rpm, the pellets were run on 12.5% sodium dodecyl sulphate (SDS)-polyacrylamide gels, and stained by Coomassie blue. Subsequently, the images of the gels were acquired by ChemiDocTM, and the relative amount of FtsZ in the bands was determined densitometrically using the Quantity One software.
# Figure 3 Polymerization assay of recombinant FtsZ (6 µM) was carried out in 25 mM PIPES/NaOH, pH 6.8, and 150 µM of GTP in the presence of berberine analogues. […]
row,SMILES,amount of polymerized FtsZ
1,O=[N+]([O-])c1ccccc1CNCCc1ccc2c(c1)OCO2 [1i],almost negligible

# Biological target: T1, FtsZ
# Test: TEM microscopy of FtsZ protofilaments
# Type: biochemical, E. coli
# Conditions: 60 µM compound, 150 µM GTP
# Experimental: The capability of berberine analogue 1i to inhibit FtsZ polymerization was also assessed by TEM microscopy, by analysing the FtsZ protofilaments of in the presence of 60 µM 1i in comparison with the untreated sample.
# FtsZ polymerization reaction solutions were diluted 1:10 in polymerization buffer in the presence and in the absence of 60 µM 1c and 1i. Then, 5 µL drops of the samples for TEM analysis were placed on a carbon-coated copper TEM grid for 20 min. Excess solution was wicked away with filter paper. Negative staining with 1% phosphotungstic acid (PTA) solution at pH 7.0 was carried out by depositing a drop of PTA solution on the grid for 1 min and then blotted dry with filter paper. The grid was allowed to dry, and images were collected using a FEI TECNAI G2 S-twin apparatus operating at 120 kV (LaB6 source).
# Figure 4 Transmission electron microscopic images of FtsZ in the absence (a) and in the presence of 1i inhibitors (b). The protofilaments are seen to be polymerized in an organized manner in the absence of inhibitor (a). 1i at 60 μM concentrations inhibit the FtsZ polymerization. Experimental conditions for all the FtsZ polymerization studies were […], PIPES 25 mM pH 6.8, KCl 50 mM, and 150 µM GTP.
row,SMILES,FtsZ protofilaments observed by TEM
1,O=[N+]([O-])c1ccccc1CNCCc1ccc2c(c1)OCO2 [1i],no protofilaments could be observed

# Biological target: T1, FtsZ
# Test: Fluorescence binding assay (quenching of compound fluorescence by FtsZ)
# Set-up: species or system E. coli
# Conditions: dissociation constant Kd, excitation 295 nm, emission 327 nm, 20 °C
# Experimental: Therefore, the intrinsic fluorescence of compound 1c was monitored at increasing concentrations of recombinant FtsZ. The sample was excited at 295 nm, and the fluorescence emission of the compound 1c was recorded.
# A 1.5 mL solution containing the 1c compound was titrated by successive additions of FtsZ protein (from 0.010 to 0.120 µM). Titrations were done manually, and fluorescence spectra were measured in the range of 280–500 nm at the excitation wavelength of 295 nm. The fluorescence spectra were recorded using a Horiba Scientific Fluoromax-4 spectrofluorometer, using a quartz cell with an optical path of 1 cm, under controlled temperature conditions (Peltier control system at 20 °C). All experiments were carried out in duplicate. The change in the fluorescence intensity of the reaction set was fitted into the “one site-specific binding” equation of GraphPad Prism 8 (GraphPad Software, San Diego, CA, USA).
# Figure 6 Fluorescence binding assay of compound 1c with FtsZ. (a) Emission fluorescence spectra at different concentrations of FtsZ. (b) ΔF at 325 nm vs FtsZ concentration. Experimental data were adjusted to a non-linear regression, and the Kd binding constant was estimated using GraphPad Prism 8. The experiments were performed in duplicate, and the standard deviation is reported as error bars.
row,SMILES,Kd [nM]
1,COc1cccc(CN(C)CCc2ccc3c(c2)OCO3)c1OC [1c],26.6

# System: E. coli
# Test: Minimum inhibitory concentration determination
# Type: cell-based
# Conditions: Escherichia coli, 24 h, read-out: MIC E. coli
# Experimental: Finally, we evaluated the in vitro antimicrobial activity of the newly synthesized berberine analogues (2g,h) on E. coli strain. The Minimal Inhibitory Concentrations (MICs) of both compounds were determined as the lowest concentration showing no visible growth after 24 h of incubation. The MIC values for 2g and 2h are reported in Table 4, together with the most interesting compounds previously reported.
# In brief, the bacterial strain was incubated overnight in LB at 37 °C. The cultures were diluted approximately to 5 × 10^5 CFU/mL, and 50 μL of bacterial suspension was added to ten wells and incubated with serial dilutions of berberine analogues from an initial concentration of 500 µM. The sterility control well contained 100 μL of LB, while the growth control well contained 100 μL of microbial suspension. […] All determinations of all assays were performed in triplicate.
row,SMILES,MIC [µM]
1,"CN(CCc1ccc2c(c1)OCO2)Cc1ccc(Cl)cc1 [2g, 2-(1,3-Benzodioxol-5-yl)-N-[(4-chlorobenzyl]-N-methylethan-1-amine hydrochloride]",128
2,"CN(CCc1ccc2c(c1)OCO2)Cc1cccc2ccccc12.Cl [2h, 2-(2H-1,3-Benzodioxol-5-yl)-N-methyl-N-[(naphthalen-1-yl)methyl]ethan-1-amine hydrochloride]",> 512

# System: not given
# Test: not given
# Conditions: not given
row,SMILES,melting point [°C]
1,"CN(CCc1ccc2c(c1)OCO2)Cc1cccc2ccccc12.Cl [2h, 2-(2H-1,3-Benzodioxol-5-yl)-N-methyl-N-[(naphthalen-1-yl)methyl]ethan-1-amine hydrochloride]",188 to 190
